The subject of one data set is MyLa. Kind of data set: Proliferation assay (thymidine uptake). Format: cell-based. To be noted: Homo sapiens; MyLa (TCL), 48 hours then thymidine pulse; read-out: IC50 (μM) on Cell proliferation. The procedure: (§1) Cells were seeded at 1×10^4 cells/well in 96 well plates, and incubated with 9-ING-41 at indicated concentrations for 48 hours followed by pulsing with tritium labeled thymidine for overnight before being analyzed for thymidine uptake.
(§2) The IC50S of 9-ING-41 on cell survival and proliferation was calculated using an on-line IC50 calculation tool (https://www.aatbio.com/tools/ic50-calculator/).
(§3) 9-ING-41 can specifically induce lymphoma cell apoptosis without affecting normal lymphocytes. The thymidine incorporation assay in the presence or absence of 9-ING-41 was performed to test the role of GSK3 in lymphoma cell proliferation. […] The DLBCL lines required slightly higher concentrations. The IC50 of 9-ING-41 on cell proliferation for various lymphoma cell lines was calculated (Table 1).

In a further data set the test system is OCI-LY1. The data set can be described thus: Proliferation assay (thymidine uptake). Format: cell-based. To be noted: Homo sapiens; OCI-LY1 (DLBCL), 48 hours then thymidine pulse; read-out: IC50 (μM) on Cell proliferation. The procedure:
as §1, §2, §3

A further data set deals with Jeko. The data set can be described thus: Proliferation assay (thymidine uptake). The format is cell-based. To be noted: Homo sapiens; Jeko (MCL), 48 hours then thymidine pulse; read-out: IC50 (μM) on Cell proliferation. The procedure: as §1, §2, §3
The test system of another data set is SeAx. The data set can be described thus: Proliferation assay (thymidine uptake). Format: cell-based. To be noted: Homo sapiens; SeAx (TCL), 48 hours then thymidine pulse; read-out: IC50 (μM) on Cell proliferation. The protocol: as §1, §2, §3
A further data set relates to Granta-519. Kind of data set: Proliferation assay (thymidine uptake). The format is cell-based. The following applies: Homo sapiens; Granta-519 (MCL), 48 hours then thymidine pulse; read-out: IC50 (μM) on Cell proliferation. The protocol:
as §1, §2, §3

The next data set concerns OCI-LY19. Kind of data set: Proliferation assay (thymidine uptake). To be noted: Homo sapiens; OCI-LY19 (DLBCL), 48 hours then thymidine pulse; read-out: IC50 (μM) on Cell proliferation. Format: cell-based. The procedure:
as §1, §2, §3

A further data set deals with SU-DHL6. The data set can be described thus: Proliferation assay (thymidine uptake). Format: cell-based. To be noted: Homo sapiens, SU-DHL-6; SU-DHL6 (DLBCL), 48 hours then thymidine pulse; read-out: IC50 (μM) on Cell proliferation. The procedure: as §1, §2, §3
For the next data set, the system named is OCI-Ly3. The data set can be described thus: Proliferation assay (thymidine uptake). To be noted: Homo sapiens; OCI-Ly3 (DLBCL), 48 hours then thymidine pulse; read-out: IC50 (μM) on Cell proliferation. The format is cell-based. The procedure: as §1, §2, §3
The test system of a further data set is Mino. The data set can be described thus: Proliferation assay (thymidine uptake). Format: cell-based. The following applies: Homo sapiens; Mino (MCL), 48 hours then thymidine pulse; read-out: IC50 (μM) on Cell proliferation. The procedure:
as §1, §2, §3

The next data set concerns Karpas-299. Kind of data set: Proliferation assay (thymidine uptake). The format is cell-based. The following applies: Homo sapiens; Karpas-299 (TCL), 48 hours then thymidine pulse; read-out: IC50 (μM) on Cell proliferation. The protocol:
as §1, §2, §3

For data set [1], the system named is lymphoma cell lines (Jeko, Mino, OCI-Ly3). Kind of data set: DNA cell cycle analysis. To be noted: after as little as 24 hours of treatment, all lines tested. Format: cell-based, human. The protocol:
(B) Cell cycle profiles of parental Ly-1 cells and GSK3α, GSK3β, GSK-3αβ knockout subclones. Inset: Western blot image showing the depletion of GSK3α and GSK-3β protein in the knockout Ly-1 subclones.
Cells were fixed and permeabilized with cold ethanol, treated with RNase, and stained with propidium iodide (Sigma). Stained cells were run on a BD FACS Calibur using CELLQuest PRO Software (Becton Dickinson). Data were analyzed with FlowJo v.X software (Tree Star Inc).
The effect of 9-ING-41 on lymphoma cell cycle kinetics was examined. […] To further determine whether this G2/M arrest specifically resulted from GSK3β inhibition, the cell cycle profile of parental (wildtype), GSK3A, GSK3B, and GSK3A/B knockout Ly-1 subclones was examined. […] These cell cycle abnormalities of GSK3B-null and GSK3A/B-null Ly-1 cells are subtle and have little impact on the survival of the Ly-1 progeny, likely through Ly-1 cell line specific compensatory mechanisms.

For data set [2], the system named is purified normal unstimulated T lymphocytes or peripheral blood mononuclear cells. The data set can be described thus: Apoptosis assay in normal cells. The format is cell-based, human. The following applies: even at 10.0 μM 9-ING-41. The protocol:
(§4) Unstimulated peripheral blood B- and T-lymphocytes isolated from a healthy donor were used as normal control. Pro-apoptotic effect of the GSK3 inhibitor 9-ING-41 in various MCL and TCL lines (A) and DLBCL lines (B). (C) Cell proliferation profile of various lymphoma cell lines upon treatment with 9-ING-41. Results (A-C) are from 3 independent experiments.
Cells were seeded at 5×10^5 cells/well in 24 well plates, and incubated with 9-ING-41 at indicated concentrations for 48 hours. The cells were then stained with FITC conjugated Annexin V (Life Technologies) and Propidium Iodide followed by analysis on a BD FACS Calibur flow cytometer.
Given that both GSK3α and GSK3β are overexpressed in lymphoma cells, and that both enzymes are implicated in multiple signaling pathways critical for cell functions, whether GSK3α and GSK3β are functionally supporting the survival and proliferation of lymphoma cells was examined. […] The inhibitory concentrations of 9-ING-41 at half of the maximal effect (IC50) on cell survival of various lymphoma cell lines was calculated (Table 1).

For the next data set, the system named is TCL and MCL lines. Kind of data set: Thymidine incorporation assay in TCL and MCL lines. Format: cell-based, human. The following applies: 9-ING-41 concentrations as low as 1.0 μM. The procedure: as §4, §1, §3
On the technique in general: Dividing cells build labelled thymidine or BrdU into new DNA.

In data set [3] the test system is T-cell lymphoma (non-Hodgkin's). The data set can be described thus: Treatment of T-Cell Lymphoma in a human. To be noted: 2 mg/kg per day, six 21 day cycles. Format: in vivo. The protocol:
A human suffering from T-cell lymphoma (non-Hodgkin's) is administered 2 mg/kg per day of 9-ING-41 for six 21 day cycles. After treatment, the human's TCL is in remission.

For data set [4] the following is noted: Xenograft mice, 20 mg/kg intravenous, within 30 minutes; cited from earlier work.

For `Cn1cc(C2=C(c3coc4ccc(F)cc34)C(=O)NC2=O)c2cc3c(cc21)OCO3` [9-ING-41, 3-(5-Fluorobenzofuran-3-yl)-4-(5-methyl-5H-[1,3]dioxolo[4,5-f]indol-7-yl)pyrrole-2,5-dione], the IC50 with MyLa is 0.19 µM; with OCI-LY1, 0.69 µM; in the data set with Jeko it was 0.94 µM; in the data set with SeAx, 0.38 µM; in the data set with Granta-519 it was 0.38 µM; with OCI-LY19, 1.96 µM. Also, the IC50 in the data set with SU-DHL6 worked out at 0.84 µM; in the data set with OCI-Ly3 it was 1.03 µM; with Mino it was 0.72 µM; with Karpas-299, 0.26 µM. For the same compound, the Cell cycle effect entry in [1] was “cell cycle blockage at G2/M”. In addition, the “Apoptosis in normal cells” value in data set [2] was “no significant apoptosis”. For the same compound, in the data set on TCL and MCL lines, the “Proliferation rate of all TCL and MCL lines” value is listed as “profoundly inhibited”. The Outcome after treatment result in data set [3] is “in remission”. Besides, in data set [4], the “9-ING-41 concentration in plasma” value is on record as “around 8 μM”. For the same compound, the “9-ING-41 concentration in the brain” value in data set [4] was “around 40 μM”.

The record behind these values is patent US11980607B2, “Methods of treating malignant lymphoproliferative disorders” (Actuate Therapeutics Inc., priority 2018, dated 2024).
